How the values were obtained:
[1] = system: Smoker and normal subject plasma; test: Thrombelastography of smoker and normal subject plasma (COHF assay); assay type: biochemical, human; conditions: for final elastic modulus (G), within group vs Control: smoker and normal plasma, 100 μM CORM-2 or 30 mM PHA
Method: Smoking subjects, free of thrombotic or hemorrhagic disease, between the ages of 19 to 50 years of age were recruited (n=20). All comparative data are presented as mean±SD. The male:female ratio (M:F) was 14:6, and the smoking group's age was 32.8±8.7 years. This cohort smoked 1.0±0.4 packs of cigarettes per day. After written consent was obtained, the smoking subjects verified that they had smoked two cigarettes within 90 minutes prior to presentation as they would ordinarily do during the day. Noninvasive pulse oximetry was performed, with COHb found to be 5.0±2.7% for the smoking cohort. Whole blood was obtained from the smokers via venipuncture of an antecubital or hand vein and was anticoagulated with sodium citrate (9 parts blood to 1 part citrate). The blood was immediately centrifuged at 3000×g for 15 minutes at room temperature, with plasma decanted, aliquoted and stored at −80° C. prior to experimentation. Frozen, citrated plasma collected from 20 nonsmoking, age-matched normal subjects (30.7±8.7 years, M:F of 10:10) was obtained from a commercial source. Smoker and normal subject plasma was thawed and subjected to thrombelastographic analyses as previously described for 15 min at 37° C. (Nielsen et al., 2011, Blood Coagul Fibrinolysis, 22: 657-661). […] This pattern of enhanced clot development without decreased time to onset of coagulation is typical of CO exposure (Nielsen et al., 2009, Blood Coagul Fibrinolysis, 20: 377-380; Nielsen et al., 2010, Blood Coagul Fibrinolysis, 21: 349-353; Nielsen et al., 2011, Blood Coagul Fibrinolysis, 22: 657-661). […] Using a modification of the previously described assay (Nielsen et al., 2011, Blood Coagul Fibrinolysis, 22: 657-661), hypercoagulability was defined as a G value 95% confidence interval value of the normal cohort (2720 dynes/cm^2). For COHF likely to be present, G values had to increase≦the average percent seen in normal subjects (≦78%) in the presence of CORM-2, and G values had to decrease≦the average normal percent (≦74%) in the presence of PHA. Using these definitions, 10 smokers were hypercoagulable; 9 smokers had kinetically detectable COHF; and 5 were both hypercoagulable and COHF positive (25% of the cohort). Of interest, 3 smokers had neither hypercoagulability nor detectable COHF (15% of the cohort), with the remaining 12 smokers either hypercoagulable only or COHF positive only (60% of the population). […]

[2] = system: human plasma; conditions: fibrinolytic environment; cited from earlier work

Row | Compound | average percent increase in G ([1]; normal subjects, 100 μM CORM-2) | final elastic modulus (G), within group vs Control [1] | increase in MRTG [2] | increase in TTG [2] | average percent decrease in G ([1]; normal subjects, 30 mM PHA) | decrease in MRTG [2] | decrease in TTG [2]
1 | [C-]#[O+].[C-]#[O+].[C-]#[O+].[C-]#[O+].[C-]#[O+].[C-]#[O+].[Cl][Ru][Cl].[Cl][Ru][Cl] [CORM-2, tricarbonyldichlororuthenium (II) dimer] | 78% | significantly increased | 120% | 113% | – | – | –
2 | ONc1ccccc1 [PHA, phenylhydroxylamine] | – | significantly decreased | – | – | 74% | 30% | 21%

Reference: patent US20140242707A1, “Compositions and Methods for Diagnosing Hypercoagulability and Hypocoagulability” (Philadelphia Health & Education Corporation d/b/a Drexel …, priority 2011, published 2014)
